Test results published in PubChem BioAssay AID602156 (GNF / Scripps Winzeler lab, 2011).
pIC50: −log10 of the molar value. Active and inactive are the calls of the source. How the calls were made is not given here.

tested on: P. yoelii liver stage in HepG2-A16-CD81EGFP, imaging; assay: exo-erythrocytic parasite development inhibition – imaging, Malaria Box, P. yoelii, HepG2-A16-CD81EGFP, dose response (AID 602156);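 further: infected cells exposed to compound for 48 hours before fixation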

SMILES | pIC50 | IC50
CCOC(=O)c1c[nH]c2c3c(ccc2c1=O)CCCC3 | 7.97 | –
Clc1ccccc1-c1nc([P+](c2ccccc2)(c2ccccc2)c2ccccc2)c(N2CCOCC2)o1 | 7.02 | –
N#CCSc1nc2ccccc2c2nc(CCc3c[nH]c4ccccc34)nn12 | – | > 10 µM (inactive)
Cc1ccc(-c2c[n+]3c(n2-c2ccccc2)SCC3)cc1 | 5.96 | –
Cc1ccnc(NC(c2ccc3ccccc3c2)c2ccc3cccnc3c2O)c1 (centres undefined) | 6.25 | –
Cc1c(C#N)c2ccccc2n1CC(=O)Nc1ccc(Br)cc1 | – | > 10 µM (inactive)
Cc1nc([P+](c2ccccc2)(c2ccccc2)c2ccccc2)c(N2CCCCC2)o1 | 7.08 | –
Fc1ccc(-c2c[n+]3c(n2-c2ccccc2)SCC3)cc1 | – | > 4.3 µM (inactive)
O=C1c2ccccc2C2=Nc3ccccc3SC(c3cccc(F)c3)C12 (centres undefined) | 6.79 | –
CC1CC(N(C(=O)c2ccc(Cl)cc2Cl)c2ccccc2)c2ccccc2N1C(=O)c1ccc(Cl)cc1 (centres undefined) | 5.44 | –
C[C@@H]1C[C@@H]([C@H](O)CC2CC(=O)NC(=O)C2)C(=O)[C@@H](C)C1 | 7.11 | –
COc1ccccc1-n1c(C=Cc2cc(Br)ccc2O)nc2ccccc2c1=O | 5.34 | –
CC1(C)C2CCC(C2)C1(C)NC(=S)NN=Cc1ccccn1 (centres undefined) | 7.76 | –
COc1ccc(Nc2cc(C)nc(NCc3ccccc3)n2)cc1 | 6.20 | –
